In patent US20220324909A1, “THERAPEUTIC PEPTIDES” (COHBAR, INC., priority 2019, published 2022):
Non-standard residues stand in square brackets, D forms with d. Primed or numbered codes have the meaning given here. No end group written: not given here. PEG12′ = polyethylene glycol moiety of 12 units

Columns and labels:
3T3-L1 mouse adipocytes = assay: Free fatty acid levels in cultured 3T3-L1 mouse adipocytes and insulin dependence (Example 17); format: cell-based; conditions: isoproterenol 0.1 nM; for Free Fatty Acid Levels, Percent of Isoproterenol Control Activity No Insulin: peptide 10 μM alone, relative to isoproterenol treated cells; for Free Fatty Acid Levels, Percent of Isoproterenol Control Activity With Insulin: peptide 10 μM with 0.25 nM insulin, relative to 0.25 nM insulin treated cells
Experimental: The effect of the peptides on fatty acid metabolism can be assessed using an assay to monitor free fatty acid levels produced by cultured cells such as mouse adipocytes. […] Following 3 h incubation, conditioned medium from each well was transferred to a fresh 96-well plate. […] Absorbance values were expressed as percent control activity relative to 0.1 nM isoproterenol treated cells (no insulin) for 10 μM peptide alone or 0.25 nM insulin treated cells (with insulin) for 10 μM peptide in presence of 0.25 nM insulin. […] Data are presented as averages values from 2-3 independent experiments with each data point performed in triplicate.

C2C12 cells = assay: Glucose utilization in cultured C2C12 cells and insulin dependence; format: cell-based, mouse; conditions: 22 h; for Glucose Utilization, Percent of Control Activity No Insulin: peptide 10 μM alone, glucose in medium relative to untreated cells; for Glucose Utilization, Percent of Control Activity With Insulin: peptide 10 μM with 5-20 nM insulin, glucose in medium relative to insulin treated cells
Text: The effect of the peptides on glucose homeostasis can be assessed using an assay to monitor glucose utilization by cultured cells such as mouse myotubes. […] C2C12 mouse muscle cell line was purchased from Millipore Sigma (Saint Louis, Mo.). […] Three days after plating the medium was removed and with Differentiation Medium (DMEM/low glucose (1 g/L)+2% Horse Serum+antibiotics) added. […] After 5 days of differentiation, the medium was removed from myotube cultures and replaced with Assay Medium (DMEM/low glucose (1 g/L)+antibiotics). […] Following the 5 h incubation the medium was removed and fresh Assay Medium containing compounds added; 10 μM peptide in absence or presence of 5-20 nM insulin, or 1 mM metformin as a potent stimulator of glucose utilization. […] Following 22 h incubation, conditioned medium from each well was transferred to a fresh 96-well plate. Glucose concentrations in the medium were determined using a Glucose Assay kit (Abcam; Cambridge, Mass.) according to the manufacturer's instructions; absorbance measured using a Cytation 3 plate reader at 570 nm (BioTek, Winooski, Vt.). Absorbance values were expressed as percent control activity relative to untreated treated cells (no insulin) for 10 μM peptide alone or 5-20 nM insulin treated cells (with insulin) for 10 μM peptide in presence of 5-20 nM insulin. Untreated cells were used as reference for basal glucose utilization. The relative standard deviation from plate to plate of untreated control was <10%. Metformin at 1 mM was used as a potent control for increasing glucose utilization. Glucose levels for metformin (1 mM) treatment were <10% of the untreated control value. Data are presented as averages values from 2-3 independent experiments with each data point performed in triplicate.

H4-IIE cells = assay: Glucose production in cultured H4-IIE cells and insulin dependence; format: cell-based, rat; conditions: 24 h; for Glucose Production, Percent of Control Activity No Insulin: peptide 10 μM alone, relative to untreated cells; for Glucose Production, Percent of Control Activity With Insulin: peptide 10 μM with 800 μM insulin, relative to insulin treated cells
Experimental: The effect of the peptides on glucose homeostasis can be assessed using an assay to monitor glucose production by cultured cells such as rat hepatocytes. […] Following 24 h incubation, conditioned medium from each well was transferred to a fresh 96-well plate. Glucose concentrations in the medium were determined using a Glucose Assay kit (Abcam; Cambridge, Mass.) according to the manufacturer's instructions; absorbance measured using a Cytation 3 plate reader at 570 nm (BioTek, Winooski, Vt.). […] Untreated cells were used as reference for maximal glucose production. […] Insulin at 800 μM was used as a modest inhibitor glucose production. […] Data are presented as averages values from 2-4 independent experiments with each data point performed in triplicate.

Substance | Free Fatty Acid Levels, Percent of Isoproterenol Control Activity No Insulin (3T3-L1 mouse adipocytes) [%] | Free Fatty Acid Levels, Percent of Isoproterenol Control Activity With Insulin (3T3-L1 mouse adipocytes) [%] | Glucose Utilization, Percent of Control Activity No Insulin (C2C12 cells) [%] | Glucose Utilization, Percent of Control Activity With Insulin (C2C12 cells) [%] | Glucose Production, Percent of Control Activity No Insulin (H4-IIE cells) [%] | Glucose Production, Percent of Control Activity With Insulin (H4-IIE cells) [%]
24 (RRMVYQCLEG[dA]) [compound 24] | 108 | 59.2 | 98.8 | 85.8 | 107.6 | 61.9
28 (RRMGYQCLEG[dA]) [compound 28] | 109 | 57.8 | 103.3 | 88.2 | 107.4 | 91.4
23 (RRMVFQCLEG[dA]) [compound 23] | 104 | 57.7 | 102 | 86.6 | 104.3 | 57.7
30 (RRMMGMVAQCLEGA; (14)..(14) RRMMGMVAQCLEG(A) [compound 30] | 102 | 56.0 | 97.7 | 88.3 | 105.7 | 65.7
31 (RRMEVYQCLCG[dA]; not fully specified; printed as RRMEVYQCLCG(dA); cysteine pairing not given here) [compound 31] | 113 | 94.6 | 103.7 | 99.2 | 95.5 | 108.3
21 (RRMMGMVFQCLCG[dA]K(PEG12′); cysteine pairing not given here) [compound 21] | 109 | 59.1 | 107.5 | 86 | 98.4 | 72.7
32 (RRMEVYQCLEG[dA]) [compound 32] | 108 | 62.9 | 103.8 | 85.0 | 99.5 | 81.9
26 (RREMVYQCLEG[dA]) [compound 26] | 104 | 52.8 | 102.2 | 98.4 | 111.5 | 103.1
25 (RREMVYQCLCG[dA]; cysteine pairing not given here) [compound 25] | 110 | 67.4 | 99.9 | 77.4 | 108.2 | 65.2
20 (KRRMMGMVFQCLCGA; (1)..(1) PEG12; (15)..(15) d-Ala) [compound 20] | 101 | 90.7 | 108 | 91 | 98.4 | 108.6
27 (RRMAYQCLEG[dA]) [compound 27] | 108 | 74.2 | 101.2 | 106.2 | 101.7 | 98.9
29 (RRMMGMVYQCLEG[dA]) [compound 29] | 110 | 52.8 | 99.2 | 92.3 | 113.9 | 148.6
22 (RRMVYQCLCG[dA]; cysteine pairing not given here) [compound 22] | 107 | 61.9 | 100.9 | 79.8 | 109.8 | 49.1
